Assay results from ChEMBL document CHEMBL1156230, “Identification of phenylsulfone-substituted quinoxaline (WYE-672) as a tissue selective liver X-receptor (LXR) agonist” (J Med Chem, 2010).
The source made the active and inactive calls. No cut-off for these calls is given here.

Tests used:
[1] = Half life in C57 mouse at 10 mg/kg, po; assay type: ADME, organism-based; parameters: dose 10 mg/kg, route oral; details: in vivo
[2] = AUC (0 to infinity) in C57 mouse at 10 mg/kg, po; assay type: ADME, organism-based; parameters: time infinity, dose 10 mg/kg, route oral; details: plasma
[3] = Tmax in C57 mouse at 10 mg/kg, po; assay type: ADME, organism-based; parameters: dose 10 mg/kg, route oral; details: in vivo
[4] = target: T1, Peroxisome proliferator-activated receptor delta (Homo sapiens) (UniProt Q03181); experiment: Binding affinity to PPARdelta
T1 sequence (whole entry): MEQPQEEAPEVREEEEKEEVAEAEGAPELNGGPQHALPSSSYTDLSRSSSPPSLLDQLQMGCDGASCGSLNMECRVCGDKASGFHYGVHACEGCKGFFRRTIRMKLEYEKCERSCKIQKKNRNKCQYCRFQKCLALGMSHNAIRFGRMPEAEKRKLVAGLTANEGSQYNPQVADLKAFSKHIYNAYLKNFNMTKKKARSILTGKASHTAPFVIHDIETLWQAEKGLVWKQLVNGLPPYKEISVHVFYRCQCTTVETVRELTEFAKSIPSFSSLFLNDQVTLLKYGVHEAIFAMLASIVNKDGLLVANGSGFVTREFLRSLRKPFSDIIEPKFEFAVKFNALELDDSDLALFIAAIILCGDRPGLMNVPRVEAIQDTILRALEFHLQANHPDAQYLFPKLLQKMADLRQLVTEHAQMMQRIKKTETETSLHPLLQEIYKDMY

[5] = target: T2, Bile acid receptor (Homo sapiens) (UniProt Q96RI1); experiment: Binding affinity to FXR
T2 sequence (whole entry): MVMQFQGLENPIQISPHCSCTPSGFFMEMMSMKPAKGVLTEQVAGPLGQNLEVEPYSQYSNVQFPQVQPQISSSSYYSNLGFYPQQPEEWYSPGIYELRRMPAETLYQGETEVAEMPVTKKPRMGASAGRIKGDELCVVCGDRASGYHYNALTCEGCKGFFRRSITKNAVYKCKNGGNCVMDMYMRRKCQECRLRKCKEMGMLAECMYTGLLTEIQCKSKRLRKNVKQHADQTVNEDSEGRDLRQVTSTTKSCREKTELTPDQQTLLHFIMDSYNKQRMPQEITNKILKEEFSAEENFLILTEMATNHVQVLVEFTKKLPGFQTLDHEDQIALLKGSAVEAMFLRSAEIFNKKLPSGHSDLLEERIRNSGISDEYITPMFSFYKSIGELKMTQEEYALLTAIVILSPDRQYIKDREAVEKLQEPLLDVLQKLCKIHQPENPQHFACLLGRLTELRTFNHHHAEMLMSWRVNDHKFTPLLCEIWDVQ

[6] = target: T3, Androgen receptor (Homo sapiens) (UniProt P10275); experiment: Binding affinity to androgen receptor
T3 sequence (whole entry): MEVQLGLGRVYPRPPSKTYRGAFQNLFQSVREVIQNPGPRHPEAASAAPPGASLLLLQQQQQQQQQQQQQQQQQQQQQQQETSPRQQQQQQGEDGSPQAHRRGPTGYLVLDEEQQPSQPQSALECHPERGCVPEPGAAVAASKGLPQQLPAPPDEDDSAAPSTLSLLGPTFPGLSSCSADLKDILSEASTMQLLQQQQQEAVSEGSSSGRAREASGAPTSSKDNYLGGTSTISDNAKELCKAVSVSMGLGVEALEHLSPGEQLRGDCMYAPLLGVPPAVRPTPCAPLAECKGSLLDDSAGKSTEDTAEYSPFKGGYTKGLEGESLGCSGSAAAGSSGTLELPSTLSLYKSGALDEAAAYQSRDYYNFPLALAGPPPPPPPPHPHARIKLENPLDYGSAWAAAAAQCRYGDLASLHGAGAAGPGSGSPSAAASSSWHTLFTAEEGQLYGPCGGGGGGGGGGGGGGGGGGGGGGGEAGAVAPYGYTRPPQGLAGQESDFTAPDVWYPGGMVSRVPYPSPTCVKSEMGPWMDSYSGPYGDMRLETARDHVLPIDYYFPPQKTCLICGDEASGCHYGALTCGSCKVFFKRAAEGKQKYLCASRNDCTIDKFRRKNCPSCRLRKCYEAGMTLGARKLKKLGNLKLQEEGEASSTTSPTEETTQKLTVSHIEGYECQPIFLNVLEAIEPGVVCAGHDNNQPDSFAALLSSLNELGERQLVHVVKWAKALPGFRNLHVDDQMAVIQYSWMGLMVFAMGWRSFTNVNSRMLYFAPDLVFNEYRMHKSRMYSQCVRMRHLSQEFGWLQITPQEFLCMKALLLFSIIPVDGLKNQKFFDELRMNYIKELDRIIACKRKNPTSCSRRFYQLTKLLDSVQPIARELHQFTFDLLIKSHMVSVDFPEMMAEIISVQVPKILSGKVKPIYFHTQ

[7] = target: T4, Estrogen receptor (Homo sapiens) (UniProt P03372); experiment: Binding affinity to estrogen receptor
T4 sequence (whole entry): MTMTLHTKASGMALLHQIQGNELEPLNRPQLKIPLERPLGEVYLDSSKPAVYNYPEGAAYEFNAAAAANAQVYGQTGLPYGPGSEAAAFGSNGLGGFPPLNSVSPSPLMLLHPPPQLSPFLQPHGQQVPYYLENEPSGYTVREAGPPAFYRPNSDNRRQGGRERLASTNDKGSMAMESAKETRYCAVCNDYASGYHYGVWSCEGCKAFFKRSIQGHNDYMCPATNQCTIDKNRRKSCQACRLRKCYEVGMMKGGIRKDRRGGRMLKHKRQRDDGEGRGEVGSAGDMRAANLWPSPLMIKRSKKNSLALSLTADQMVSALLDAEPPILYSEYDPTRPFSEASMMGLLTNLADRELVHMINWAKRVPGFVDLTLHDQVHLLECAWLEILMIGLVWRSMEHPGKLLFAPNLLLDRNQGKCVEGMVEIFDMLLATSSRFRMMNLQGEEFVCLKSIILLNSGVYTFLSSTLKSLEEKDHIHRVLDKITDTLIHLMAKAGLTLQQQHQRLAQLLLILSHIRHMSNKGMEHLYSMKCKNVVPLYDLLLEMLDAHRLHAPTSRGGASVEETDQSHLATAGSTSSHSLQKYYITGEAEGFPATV

[8] = Binding affinity to thyroid hormone receptor
Mus musculus = experiment: Antiatherosclerotic activity against high fat/high cholesterol fed LDLR-deficient mouse assessed as reduction in aortic arch lesion burden at 3 mg/kg/day administered with diet relative to control; assay type: functional, Pharyngeal arch artery; parameters: scale not given: the % may be the effect or the level left
[9] = Plasma concentration in high fat/high cholesterol fed LDLR-deficient mouse at 0.6 mg/kg, qd administered with diet for 8 weeks measured after 3 hrs of last dose; assay type: ADME, organism-based; parameters: dose 0.6 mg/kg; details: po
[10] = target: T5, Oxysterols receptor LXR-beta (Homo sapiens, UniProt P55055); experiment: Displacement of [3H]T0901317 from human LXRbeta ligand binding domain
[11] = target: T5, Oxysterols receptor LXR-beta
[12] = target: Oxysterols receptor LXR-alpha (Homo sapiens, UniProt Q13133)
THP-1 = experiment: cells; details: Homo sapiens
[13] = Plasma concentration in high fat/high cholesterol fed LDLR-deficient mouse administered with diet for 8 weeks measured after 3 hrs of last dose; assay type: ADME, organism-based; details: po

T5 sequence (P55055 whole entry, the tested form may be a part): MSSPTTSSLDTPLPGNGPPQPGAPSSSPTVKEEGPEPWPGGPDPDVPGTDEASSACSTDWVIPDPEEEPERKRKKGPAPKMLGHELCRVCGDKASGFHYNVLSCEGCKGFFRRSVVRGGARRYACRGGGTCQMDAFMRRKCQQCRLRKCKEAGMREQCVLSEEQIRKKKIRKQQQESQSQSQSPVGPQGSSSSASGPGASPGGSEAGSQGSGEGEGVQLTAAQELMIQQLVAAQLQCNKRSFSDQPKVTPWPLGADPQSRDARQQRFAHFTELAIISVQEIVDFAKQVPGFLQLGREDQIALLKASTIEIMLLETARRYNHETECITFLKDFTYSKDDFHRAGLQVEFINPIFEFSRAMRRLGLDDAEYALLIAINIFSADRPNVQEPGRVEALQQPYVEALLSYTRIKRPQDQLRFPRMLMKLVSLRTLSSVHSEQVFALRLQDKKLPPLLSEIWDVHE
Chain of Oxysterols receptor LXR-alpha (Q13133 whole entry, looked up): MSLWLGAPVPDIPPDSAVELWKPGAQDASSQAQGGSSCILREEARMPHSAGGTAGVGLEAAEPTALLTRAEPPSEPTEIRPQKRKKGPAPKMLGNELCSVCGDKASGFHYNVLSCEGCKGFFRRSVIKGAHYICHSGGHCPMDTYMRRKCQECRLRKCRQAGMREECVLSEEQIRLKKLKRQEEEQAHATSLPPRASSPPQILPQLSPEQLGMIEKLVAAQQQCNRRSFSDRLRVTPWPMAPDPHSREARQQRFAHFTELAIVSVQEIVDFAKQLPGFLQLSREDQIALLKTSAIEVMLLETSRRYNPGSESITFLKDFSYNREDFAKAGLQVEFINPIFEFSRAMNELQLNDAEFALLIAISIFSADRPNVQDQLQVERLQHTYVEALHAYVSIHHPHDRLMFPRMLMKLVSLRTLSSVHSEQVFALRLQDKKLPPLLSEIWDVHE

Row | half-life [1] | AUC(0-inf) [2] | Tmax [3] | Activity [4] | Activity [5] | Activity [6] | Activity [7] | Activity [8] | concentration at 3 h [9] | IC50 [10] | EC50 [11] | EC50 [12] | EC50 (THP-1) | concentration at 3 h [13] | Structure (SMILES) | Activity (Mus musculus)
1 | > 20 h | 2440 ng·h/mL | 4 h | inactive | inactive | inactive | inactive | inactive | 1020 ng/mL | 53 nM | > 1000 nM | > 1000 nM | 1090 nM |  | Cc1nc2c(C(F)(F)F)cccc2nc1-c1ccc(-c2cccc(S(C)(=O)=O)c2)cc1 | 51%
2 |  |  |  |  |  |  |  |  |  |  |  |  |  | 175 ng/mL | O=C(O)Cc1cccc(OCCCN(Cc2cccc(C(F)(F)F)c2Cl)CC(c2ccccc2)c2ccccc2)c1 | 
